Assay results as given in US20260042753A1 (Merck Patent GmbH, priority 2019, published 2026).
Like-named read-outs stand apart in the source and are kept apart here.

Assays:
[1] = molecular target: mutant cKIT (560-576 and V654A) in GIST430/654 cell line (Homo sapiens (Human), UniProt P10721, DEL560-576/V654A); assay: Cellular testing of cKIT mutant inhibitors: phospho-Y307-cKIT Luminex assay in GIST430/654 cells; type: cell-based; conditions: read-out: GIST 430/654 IC50
Procedure, shortened: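 GIST430/654 cells carrying constitutively active cKIT (Δ560-576/V654A) were grown with 100 nM imatinib, then treated with serially diluted compound for 45 min. Lysates were captured on anti-total-cKIT Luminex beads overnight at 4 °C and probed for phospho-Y307-cKIT. IC50 was fitted from percent of 0.3% DMSO control.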

c-Kit(V654A) = c-Kit(V654A) (Homo sapiens, UniProt P10721, V654A); assay: c-Kit(V654A) assay; type: biochemical
Procedure, shortened: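 Radiometric filter-binding read-out: after 3% phosphoric acid stop, peptide-incorporated 33P on filtermat scintillation-counted. Enzyme: human c-Kit V654A, residues 544–end, N-terminal GST fusion.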

[2] = Table 1, cKIT autophosphorylation, compounds 45 min
[3] = Table 2, corresponding triazole derivatives

mutant cKIT (560-576 and V654A) in GIST430/654 cell line, sequence (P10721 other isoform, or with tags, fused parts or gaps V654A/del 1-25/del 560-576 limits assumed): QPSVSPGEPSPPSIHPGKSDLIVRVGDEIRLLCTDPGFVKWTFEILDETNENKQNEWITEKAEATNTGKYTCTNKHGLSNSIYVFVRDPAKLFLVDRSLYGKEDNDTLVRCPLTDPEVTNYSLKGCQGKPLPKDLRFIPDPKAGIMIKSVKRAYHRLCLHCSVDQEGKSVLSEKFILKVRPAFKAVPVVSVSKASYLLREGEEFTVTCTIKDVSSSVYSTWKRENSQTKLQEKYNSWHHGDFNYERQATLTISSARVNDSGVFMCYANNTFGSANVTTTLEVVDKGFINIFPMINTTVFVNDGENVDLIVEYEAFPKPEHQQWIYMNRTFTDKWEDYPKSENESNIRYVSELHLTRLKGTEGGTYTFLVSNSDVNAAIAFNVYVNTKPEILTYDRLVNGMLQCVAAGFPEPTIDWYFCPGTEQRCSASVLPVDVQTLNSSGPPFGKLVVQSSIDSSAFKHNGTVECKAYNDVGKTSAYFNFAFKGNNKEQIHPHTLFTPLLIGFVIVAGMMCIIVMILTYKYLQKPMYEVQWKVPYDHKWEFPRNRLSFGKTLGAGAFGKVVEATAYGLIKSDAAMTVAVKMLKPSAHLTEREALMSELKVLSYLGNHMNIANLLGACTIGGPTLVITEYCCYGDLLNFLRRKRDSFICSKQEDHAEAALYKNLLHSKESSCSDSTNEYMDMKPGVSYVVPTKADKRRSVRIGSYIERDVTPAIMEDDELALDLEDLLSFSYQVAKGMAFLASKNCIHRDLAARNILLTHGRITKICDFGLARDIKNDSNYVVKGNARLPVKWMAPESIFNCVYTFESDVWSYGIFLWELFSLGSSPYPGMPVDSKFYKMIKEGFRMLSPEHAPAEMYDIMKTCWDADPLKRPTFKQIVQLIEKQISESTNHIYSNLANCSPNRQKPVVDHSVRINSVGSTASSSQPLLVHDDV

Row | SMILES | IC50 [1, 2] [nM] | IC50 (c-Kit(V654A); Table 1, 200 μM ATP) [nM] | IC50 [1, 3] [nM] | IC50 (c-Kit(V654A); [3]) [nM]
1 | COCCOc1cc2[nH]nc(-c3cc(-c4ccc(C(=O)N5CC(c6ccncc6)C5)cc4)no3)c2cc1F [A120, 5-fluoro-6-(2-methoxyethoxy)-3-(3-{4-[3-(pyridin-4-yl)azetidine-1-carbonyl]phenyl}-1,2-oxazol-5-yl)-1H-indazole] | 24 | 0.64 |  | 
2 | COCCOc1cc2[nH]nc(-c3cc(-c4ccc(C(=O)N5CCC[C@@H]5CO)cc4)no3)c2cc1F [A52, [(2R)-1-(4-{5-[5-fluoro-6-(2-methoxyethoxy)-1H-indazol-3-yl]-1,2-oxazol-3-yl}benzoyl)pyrrolidin-2-yl]methanol] | 55 | 0.82 |  | 
3 | COCCOc1cc2[nH]nc(-c3cc(-c4ccc(C(=O)N5CC6(CN(C)C6)C5)cc4)no3)c2cc1F [A88, 5-fluoro-6-(2-methoxyethoxy)-3-[3-(4-{6-methyl-2,6-diazaspiro[3.3]heptane-2-carbonyl}phenyl)-1,2-oxazol-5-yl]-1H-indazole] | 170 | 2.3 |  | 
4 | COCCOc1cc2[nH]nc(-c3cc(-c4ccc(C(=O)N5CC[C@@H](F)C5)nc4)no3)c2cc1F [A100, 5-fluoro-3-(3-{6-[(3R)-3-fluoropyrrolidine-1-carbonyl]pyridin-3-yl}-1,2-oxazol-5-yl)-6-(2-methoxyethoxy)-1H-indazole] | 340 | 5.7 |  | 
5 | COCCOc1cc2[nH]nc(-c3cc(-c4ccc(C(=O)N5CC[C@@H]5C(C)(C)O)cc4)on3)c2cc1F [A147, (4-{3-[5-fluoro-6-(2-methoxy-ethoxy)-1H-indazol-3-yl]-isoxazol-5-yl}-phenyl)-[(R)-2-(1-hydroxy-1-methyl-ethyl)-azetidin-1-yl]-methanone] | 67 | 2.2 |  | 
6 | COCCOc1cc2[nH]nc(-c3cc(-c4cnn(C)c4)no3)c2cc1F [A137, 5-fluoro-6-(2-methoxy-ethoxy)-3-[3-(1-methyl-1H-pyrazol-4-yl)-isoxazol-5-yl]-1H-indazole] | 180 | 7.6 |  | 

Now from value to molecule:

Row | IC50 [1, 2] [nM] | IC50 (c-Kit(V654A); Table 1, 200 μM ATP) [nM] | IC50 [1, 3] [nM] | IC50 (c-Kit(V654A); [3]) [nM] | SMILES
7 | 65 | 1 |  |  | COCCOc1cc2[nH]nc(-c3cc(-c4ccc(C(=O)N5CC(N6CCCCC6)C5)cc4)no3)c2cc1F [A177, 5-fluoro-6-(2-methoxyethoxy)-3-(3-{4-[3-(piperidin-1-yl)azetidine-1-carbonyl]phenyl}-1,2-oxazol-5-yl)-1H-indazole]
8 |  |  | 160 | 2.6 | COCCOc1cc2[nH]nc(-c3cn(-c4ccc(C(=O)N5CC(c6ccncc6)C5)cc4)nn3)c2cc1F [reference compound]
9 | 48 | 1.1 |  |  | COCCOc1cc2[nH]nc(-c3cc(-c4ccc(C(=O)N5CCN([C@H]6CCOC6)CC5)cc4)no3)c2cc1F [A186, 5-fluoro-6-(2-methoxyethoxy)-3-[3-(4-{4-[(3S)-oxolan-3-yl]piperazine-1-carbonyl}phenyl)-1,2-oxazol-5-yl]-1H-indazole]
10 |  |  | 470 | 5 | COCCOc1cc2[nH]nc(-c3cn(-c4ccc(C(=O)N5C[C@H]6COC[C@H]6C5)cc4)nn3)c2cc1F [reference compound]
11 |  |  | 1000 | 15 | COCCOc1cc2[nH]nc(-c3cn(-c4ccc(N5CCN(C)CC5)cc4)nn3)c2cc1F [reference compound]
12 | 87 | 1.9 |  |  | COCCOc1cc2[nH]nc(-c3cc(-c4ccc(C(=O)N5CC(N6CCN(C7COC7)CC6)C5)cc4)no3)c2cc1F [A197, 5-fluoro-6-(2-methoxyethoxy)-3-[3-(4-{3-[4-(oxetan-3-yl)piperazin-1-yl]azetidine-1-carbonyl}phenyl)-1,2-oxazol-5-yl]-1H-indazole]
13 | 120 | 0.86 |  |  | O=C(c1ccc(-c2cc(-c3n[nH]c4cc(OCCO)c(F)cc34)on2)cc1)N1CC(N2CCOCC2)C1 [A209, 2-{[5-fluoro-3-(3-{4-[3-(morpholin-4-yl)azetidine-1-carbonyl]phenyl}-1,2-oxazol-5-yl)-1H-indazol-6-yl]oxy}ethan-1-ol]
